Tests used:
Type in all cases: cell-based
NCI-H460 cell line = test: MTT cell proliferation assay, NCI-H460; conditions: Homo sapiens, 48 hours, read-out: half maximal inhibitory concentration (IC50)
Method: (§1) NSCLC cell lines A549, NCI-H460, NCI-H520 and normal lung cell line MRC5 were obtained from Bioresource Collection and Research Center (BCRC, Taiwan). A549 cell line was cultured with F12K medium (21127, GIBCO, Carlsbad, U.S.A.). Both NCI-H460 and NCI-H520 cell lines were cultured with RPMI1640 medium (23400, GIBCO, Carlsbad, U.S.A.). MRC5 cell line was culture with MEM medium (41500, GIBCO, Carlsbad, U.S.A.). All media mentioned above contained 10% FBS (10437, GIBCO, Carlsbad, U.S.A.). All cultures were maintained in an incubator (Thermo forma 370, Waltham, U.S.A.) with 5% CO2 at 37° C. Cells were seeded at 1×10^4 cells per well in a 24-well plate for 16 hours. After that, a sample such as the berberine solutions with different concentrations and the extract of C. chinensis was added into 24-well plate directly, and cultured at 37° C. for 24, 48, and 72 hours, respectively. Thiazolyl blue tetrazolium bromide (MTT, m5655, Sigma, St. Louis, U.S.A.) solution was prepared in a concentration of 5.5 mg/ml with phosphate buffered saline (PBS) filtered by 0.22 μm membrane. The MTT solution (50 μl) was added to the wells of 24-well plates with A549, NCI-H460, NCI-H520, and MRC5 cell lines cultured after 24, 48, and 72 hours. The plates were incubated at 37° C. for 2 hours and then moved out. The media of the wells were removed. […]

A549 cell line = test: MTT cell proliferation assay, A549; conditions: Homo sapiens, 48 hours, read-out: half maximal inhibitory concentration (IC50)
Method: as §1

A549 cells = test: Side population analysis (Hoechst33342, flow cytometry); conditions: A549, dose of IC50, 48 hours
Method: A549 cells were seeded in the number of about 3×10^5 in 10 cm dish to give adequate number of cells for analysis. The cells were treated with the extract of C. chinensis and the berberine solution in the dose of IC50 for 48 hours. Then, the treated cells were harvested by typsinization and centrifugation. The harvested cells were re-suspended in the number of 1×10^6 cells/ml in culture medium containing 2% FBS. Hoechst33342 dye (5 μg/ml, Invitrogen, Carlsbad, U.S.A.) was added with or without reserpine (50 μM, Sigma, St. Louis, U.S.A.) as a blocking reagent. The cells were further incubated at 37° C. for 2 hours under frequently gentle vortex to ensure uniform staining, and then washed cells with PBS. PI staining (20 ng/ml) was used to determine the live/dead cells. In order to set up the fluorescence compensation, single staining and non-staining groups were prepared. The cell samples were filtered with nylon mesh (35 μm) to prevent cell aggregation. PI-positive dead cells were primary excluded to avoid false positive signals. Then, the Hoechst blue and red dot plotting was used to determine the side population. A gate of a side population was defined by the diminishing region of two samples groups, i.e. with or without reserpine. The percentages of the side population were further analyzed by Flowjo software (TreeStar, Ashland, U.S.A.).

NCI-H520 cell line = test: MTT cell proliferation assay, NCI-H520; conditions: Homo sapiens, 48 hours, read-out: half maximal inhibitory concentration (IC50)
Method: as §1

With `COc1ccc2cc3[n+](cc2c1OC)CCc1cc2c(cc1-3)OCO2` [berberine solution, berberine chloride] the IC50 (NCI-H460 cell line) was ~40 µM, the IC50 (A549 cell line) was ~7 µM and the “side population (SP)” value (A549 cells) was “considerably diminished”. For the same compound, the IC50 (NCI-H520 cell line) was ~20 µM.
